Reference: patent US20130109581A1, “POSITIVELY CHARGED SPECIES AS BINDING REAGENTS IN THE SEPARATION OF PROTEIN AGGREGATES FROM MONOMERS” (priority 2009, published 2013)
Where two headings read alike, the source gives them in different places.

Legend:
[1] = biological target: T1, oligomeric beta amyloid 1-42 (globulomer) (Homo sapiens, UniProt P05067); assay: Misfolded Protein Assay: capture of globulomer spiked into CSF (Example 2); format: binding; conditions: globulomer-spiked CSF vs normal CSF; reagent on Dynal M270 beads
T1 construct: beta amyloid (1-42) was monomerized with incubation in hexafluoroisopropanol
Procedure: To assess the ability of these reagents to capture protein aggregates, the previously described Misfolded Protein Assay or MPA (Lau et al., 2007, PNAS, 104: 11551) was used (FIG. 3). In this assay, the capture reagent of interest is attached to beads which are incubated with a sample of interest containing a mixture of normal monomeric and aggregated proteins to allow for capture and then washed to remove unbound material. After this enrichment step, an elution buffer is used to dissociate the captured material from the beads as well as to denature any aggregates. The eluted material is then applied to a sandwich ELISA that is specific for the protein of interest. Strong aggregate-binding reagents acting as effective capture reagents show a high signal from the sample containing a mixture of monomers and aggregates, but not from the control sample, which contains only physiologic levels of monomeric protein.
Beads displaying carboxylic acids were treated with EDC and BMPH to create maleimide-displaying beads, to which thiolated peptides (or other thiolated organic molecules) were added through a Michael addition reaction. Dynal M270 magnetized beads (30 mg/mL bead) displaying carboxylic acids were vortexed and placed into a 15 ml falcon tube. The tube was placed into a magnet, and the supernatant removed. The beads were washed 2 times with 0.1 M MES buffer, pH 5, and then the washing buffer was removed. The coupling solution (33 mM BMPH, 130 mM EDC in MES buffer) was added, and the tube was rocked for 30 minutes at room temperature. After washing in 1×MES, 1× Tris, pH 7.5, the beads were quenched with Tris buffer (50 mM Tris buffer, pH 7.5) for 15 minutes. The beads were then washed 2 times in phosphate buffer and added to 5 mM thiolated ligand in degassed phosphate. The beads were rotated for 21 hours, then washed in 0.1 M phosphate buffer, pH 7, 1×PBS, and stored.
To prepare the globulomer, beta amyloid (1-42) was monomerized with incubation in hexafluoroisopropanol. The hexafluoroisopropanol was removed by vacuum centrifugation. DMSO, PBS, and 2% SDS were then added to the sample. The sample was vortexed and sonicated and then incubated at 37° C. After 6 hours, the sample was diluted with water, vortexed, and incubated at 37° C. for an additional 19 hours. The sample was ultracentrifuged at 135000×g for 1 hour at 4° C., and the supernatant retained. The globulomers were spiked into CSF for the assay.
Aliquots of beads conjugated to various reagents were added to wells of a 96-well plate. Globulomer-spiked CSF in a Tris buffer was added to each well, and the plates were incubated for 1 hour at 37° C. with shaking. For the negative control, normal CSF was used, which is considered to contain only monomers of beta amyloid. The beads were washed with TBST wash buffer, and bound materials were eluted with a denaturing solution (typically 0.1-0.15 N NaOH). A reconditioning buffer was added to the eluate prior to beta amyloid detection via a beta amyloid (1-42) specific sandwich ELISA.
In order to determine the amount of ligand loading, amine quanitation was used. Aliquots of beads were placed in a magnet, and the supernatant removed. 80% phenol in ethanol, 0.2 mM KCN in pyridine/water, and 6% ninhydrin in ethanol was added to each tube. The aliquots were vortexed and heated for 7 minutes at 100° C. After cooling to room temperature, 60% ethanol was added. The tubes were placed in a magnet, and the absorbance of the supernatant at 570 nm was determined. The loading of the beads was determined according to Beer's law, using the extinction coefficient of 15000 M-1 cm-1.
Beads (3 ul or 15 ul) were added to samples containing 0.5 ng/mL globulomer spiked into CSF. […] For PSR1, this limit was ˜5 nmol ligand/mg bead for binding preferentially to globulomer. […]

[2] = biological target: T2, Aβ40 aggregates in AD CSF (Homo sapiens, UniProt P05067); assay: Discrimination between AD and normal CSF; format: binding; conditions: AD CSF; detergent wash; data not shown
T2 construct: from tissue; host or cells: pooled cerebrospinal fluid (normal or AD)
Procedure: The Ab42 aggregates were prepared as previously described: fibrils were prepared per Stine et al (JBC 2003, 278, p11612), globulomers were prepared per Barghorn et al (J Neurology 2005 95 p834), ADDLs were prepared per Lambert et al (PNAS 1998, 95 p6448), and ASPDs were prepared per Noguchi et al (JBC 2009 284 p32895). Normal CSF was pooled from clinically characterized non-demented patient CSF samples. AD CSF was pooled from clinically-characterized AD patient samples. Alzheimer's Disease Brain Homogenate (ADBH) was prepared by sonication of clinically diagnosed AD patient brain samples in 0.2M.sucrose (1:10 w/v).
For the capture assay (Misfolded Protein Assay), aliquots of the beads (30 ul) were added to wells of a 96 well plate, followed by 125 ul of sample in 80:20 CSF:TBSTT. The plate was sealed and incubated for 1 h at 37 C with shaking. The plate was washed with TBST and the residual buffer removed. A denaturing solution (0.1 N NaOH) was added to each well and the plate heated to 80 C. for 30 min with shaking. After cooling the plate to RT, a neutralizing buffer (0.12 M NaH2PO3-0.4% TW20,) was added and the plate shaken briefly at RT. The assay was analyzed using the triplex Mesoscale Discovery ELISA kit for Aβ. The Aβ in the samples eluted from the beads were detected per the manufacturer's protocol.
For discriminating between AD and normal CSF, pooled normal CSF or pooled Alzheimer's Disease patient CSF, were assayed per the protocol described above.

Abeta 42 globulomer = Abeta 42 globulomer (Homo sapiens, UniProt P05067); assay: NMPA with detergent washing after PSR1 pulldown: globulomer detection; format: binding
normal CSF Aβ42 = biological target: T3, normal CSF Aβ42 (Homo sapiens, UniProt P05067); assay: NMPA with detergent washing: background from unspiked CSF, Abeta42; format: binding; conditions: CSF; PSR1 beads treated with detergent post capture
T3 construct: reduced the detection of normal CSF Aβ42 to the background levels; from tissue; host or cells: pooled normal cerebrospinal fluid
Procedure: Second, two neutral detergents, polyethylene glycol sorbitan monolaurate (available as TWEEN 20 from Sigma-Aldrich, St. Louis, Mo.) and n-tetradecyl-N,N-dimethyl-3-ammonio-1-propanesulfonate (available as ZWITTERGENT 3-14 from EMI) Chemicals, Gibbstown, N.J.) were used to treat the globulomer-spiked CSF samples that had been contacted with PSR1 beads. For each assay, a mixture of 30 μl of PSR1 beads (coated at about 7-12 nmol PSR1 ligand/mg DYNAL beads, which were used in this example and in the following examples unless otherwise stated) and 70 μl of 1×TBSTT was immediately pipetted into each well on the pulldown plate. The liquid was removed on a magnetic separator. Fifty micro liters of 5×TBSTT was added to each well. The beads were suspended by briefly shaking at 750 rpm. Next […] of TBSTT or CSF sample without globulomer was added to each well. The pulldown plate was sealed and incubated at 37° C. for 1 hour with shaking at 500 rpm. After incubation, the beads were washed 8 times with TBST on the plate washer. After the plate wash, residual TBST buffer was removed from the beads on the magnetic separator. The beads were then incubated with 100 μl of either TBS, 1% Tween20 or 1% Zwittergent 3-14 for 30 minutes at room temperature at 750 rpm, (followed by an additional 8 washes with TBST on the plate washer. After removing residual TBST on the magnetic separator, 20 μl of denaturing solution, typically 0.1-0.15 N NaOH, was added to the beads. The plate was covered with an aluminum foil plate sealer and incubated at 80° C. for 30 minutes with shaking at 750 rpm. After incubation, the plate was cooled to room temperature and twenty micro liters of neutralizing solution, typically 0.12-0.18 M NaH2PO4+0.4% Tween20) was added into each well and the plate was incubated at room temperature for 5 minutes with shaking at 750 rpm. […] MSD Abeta Triplex Assay was preformed according to the manufacturer's instructions.
A summary of the assay results and calculated signal/noise is shown below in Table 17.

Abeta 1-42 globulomer = biological target: T4, Abeta 1-42 globulomer (Homo sapiens, UniProt P05067); assay: Globulomer capture assay in CSF (Example 6); format: binding
T4 construct: beta amyloid (1-42) was monomerized with incubation in hexafluoroisopropanol
Procedure: (§1) A series of new potential aggregate-specific binding reagents were designed as shown below and conjugated onto magnetic Dynal M270 beads as described in Example 2. Typically 7-12 nmol of ligand (each candidate aggregate-specific binding reagent) was coated onto 1 mg of beads.
(§2) Aliquots of the beads (typically 3 ul) were added to wells of a 96 well plate, followed by sample (with or without Abeta 1-42 globulomer (an Abeta42 oligomer model) spiked in 80:20 CSF:TBSTT, typically 125 ul). The plate was sealed and incubated for 1 hour at 37° C. with shaking. The plate was washed with aqueous solutions of detergent (typically polyethylene glycol sorbitan monolaurate and n-tetradecyl-N,N-dimethyl-3-ammonio-1-propanesulfonate) to remove ubound material and the residual buffer removed. A denaturing solution (typically 0.1-0.15 N NaOH) was added to each well and the plate heated to 80° C. for 30 min with shaking. After cooling the plate to room temperature, a neutralizing buffer (typically 0.12-0.18 M NaH2PO3 in 0.4% TWEEN20,) was added and the plate was shaken briefly at room temperature. The bead eluate was analyzed using either an Aβ42-specific ELISA or the MSD® 96-Well MULTI-SPOT® Human/Rodent [4G8] Abeta Triplex Ultra-Sensitive Assay from Meso Scale Discovery (Gaithersburg, Md.). For the Aβ42-specific assay, the samples were eluted from the beads and a detection antibody (4G8 HRP) was added to a plate bearing the Aβ42-specific antibody 12F4. The plate was incubated for 1 hour, washed, the substrate was added (SuperSignal West Femto Maximum Sensitivity Substrate from Thermo Fisher, Rockville, Md.), and the luminescence was measured. The MSD plate assay was performed in a similar fashion, according to the manufacturer's protocol.
(§3) In this experiment the preferred number of charges within a given scaffold was identified. An Ala/Lys peptide framework was utilized, where the inclusion of each Lys residue increases the peptides' net charge by +1. Six hexapeptides with increasing charge (+1→+6), AAAKAA, AAKKAA, AAKKKA, AKKKKA, AKKKKK, and KKKKKK, were prepared and conjugated on the beads. The ability of these beads to capture Abeta 1-42 globulomer spiked at 1 ng/mL into CSF was tested, and the result is shown in FIG. 25. The globulomer capture level (“42 1 ng/ml” or the closed bars) was compared to the background signal of Abeta 1-42 detected in the unspiked CSF (“42 0 ng/ml”) and the background signal of Abeta 1-40 detected in unspiked CSF (“40 0 ng/ml”) or CSF spiked with AB42 oligomers “40 1 ng/ml”. The charge density, as conjugated to the magnetic beads, of each reagent evaluated in this experiment is shown below in Table 8.

Abeta 1-40 monomer = biological target: T5, Abeta 1-40 monomer (Homo sapiens, UniProt P05067); assay: Globulomer capture assay in CSF (Example 6): Abeta 1-40 noise; format: binding; conditions: Abeta 1-40 signal (noise), CSF samples
T5 construct: Abeta 1-40 monomer capture level; from tissue; host or cells: cerebrospinal fluid (matrix of the assay)
Procedure: as §1, §2, §3

PrP^Sc = PrP^Sc (Mesocricetus auratus, UniProt P04273)
Sequence of PrP^Sc (P04273 23-231 limits assumed): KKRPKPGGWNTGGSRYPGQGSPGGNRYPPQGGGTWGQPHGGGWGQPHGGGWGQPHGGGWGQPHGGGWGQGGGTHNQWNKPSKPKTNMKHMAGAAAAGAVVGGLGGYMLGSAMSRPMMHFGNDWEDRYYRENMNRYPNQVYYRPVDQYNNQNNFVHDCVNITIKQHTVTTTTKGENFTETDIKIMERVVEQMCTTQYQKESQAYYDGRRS

KKKWKW
capture of oligomers (relative light units from the Abeta ELISA) [1]: increased capture efficiency relative to the corresponding peptides with aliphatic hydrophobic residues or no hydrophobic residues

n-Hexadecyl-N,N-dimethyl-3-ammonio-1-propanesulfonate [ZW3-16]
Abeta 40 aggregates capture S/N [2]: improved Abeta 40 aggregates capture S/N even more significantly in AD CSF | signal/noise of globulomer detection (Abeta 42 globulomer): improved the signal/noise ratio for Abeta 42 globulomer detection more significantly | S/N Abeta 42 globulomer-spiked/unspiked (Abeta 42 globulomer; 0.5 ng/mL vs 0 ng/mL globulomer): 10.9 | S/N Abeta 42 globulomer-spiked/Abeta 40 (Abeta 42 globulomer; Abeta 42 RLU at 0.5 ng/mL over average Abeta 40 RLU): 3.7 | Abeta 42 RLU, 0.5 ng/mL Abeta 42 globulomer, Average (Abeta 42 globulomer; CSF, PSR1 beads treated with detergent post capture): 730.7 RLU | Abeta 42 RLU, 0 ng/mL Abeta 42 globulomer, Average (normal CSF Aβ42): 67.0 RLU

DDDDDD
capture of oligomers (relative light units from the Abeta ELISA) [1]: little enrichment of the oligomeric species

KKKKKK
42:40 (signal:noise ratio) (Abeta 1-42 globulomer; 1 ng/ml average reading, ratio of 42 to 40): 3.3 | 42, 1 ng/ml average reading (Abeta 1-42 globulomer; Abeta 1-42 globulomer spiked at 1 ng/mL into CSF): 658 RLUs | 40, 1 ng/ml average reading (Abeta 1-40 monomer): 197 RLUs | capture of oligomers (relative light units from the Abeta ELISA) [1]: significant capture

Nab-Nab-Nab-Nab-Nab-Nab [++++++]
PrP^Sc capture signal (PrP^Sc): Signal was observed with the 100 or 300 ng/mL spike levels

HHHHHH
capture of oligomers (relative light units from the Abeta ELISA) [1]: little enrichment of the oligomeric species

CCCCCCCCCCCCCC(=O)NCCC[N+](C)(C)CCCS(=O)(=O)[O-] [ASB-14, Amidosulfobetaine-14,3-[N,N-Dimethyl(3-myristoylaminopropyl)ammonio]propanesulfonate]
Abeta 42 RLU, 0.5 ng/mL Abeta 42 globulomer, Average (Abeta 42 globulomer): 779.3 RLU | S/N Abeta 42 globulomer-spiked/Abeta 40 (Abeta 42 globulomer): 2.0 | S/N Abeta 42 globulomer-spiked/unspiked (Abeta 42 globulomer): 8.7 | Abeta 42 RLU, 0 ng/mL Abeta 42 globulomer, Average (normal CSF Aβ42): 89.7 RLU

CCCCCCCCc1ccc(C(=O)NCCC[N+](C)(C)CCCS(=O)(=O)[O-])cc1 [ASB-C8phn, 4-n-Octylbenzoylamido-propyl-dimethylammonio Sulfobetaine]
Abeta 42 RLU, 0.5 ng/mL Abeta 42 globulomer, Average (Abeta 42 globulomer): 936.3 RLU | S/N Abeta 42 globulomer-spiked/Abeta 40 (Abeta 42 globulomer): 1.4 | S/N Abeta 42 globulomer-spiked/unspiked (Abeta 42 globulomer): 9.3 | Abeta 42 RLU, 0 ng/mL Abeta 42 globulomer, Average (normal CSF Aβ42): 100.7 RLU
